Test results reported in publication PMC11943294, “Identification of Key Active Constituents in Eucommia ulmoides Oliv. Leaves Against Parkinson’s Disease and the Alleviative Effects via 4E-BP1 Up-Regulation” (International Journal of Molecular Sciences, 2025).

Tests used:
4E-BP1 [1] = biological target: T1, 4E-BP1 (Homo sapiens, UniProt Q13541); test: SPR (BIAcore T200, CM5 chip, immobilized 4E-BP1, […] Langmuir); type: binding
T1 construct: gene EIF4EBP1; amine-coupled to CM5 chip; PDB 2JGB used for docking only
T1 sequence (Q13541 2-118): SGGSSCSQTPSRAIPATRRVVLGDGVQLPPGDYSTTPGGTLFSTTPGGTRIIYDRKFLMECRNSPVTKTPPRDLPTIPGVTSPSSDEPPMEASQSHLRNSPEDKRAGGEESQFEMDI

4E-BP1 [2] = biological target: T1, 4E-BP1; test: as above; details: 25 °C; 0-125 μM analyte; unreliable (discussion b43 prints another KD, 3.75 × 10^−5 M, and a negative deviation of the binding curve)

Row | Kd (4E-BP1 [1]) [µM] | KD (4E-BP1 [2]) [µM] | SMILES
1 | 12.9 | – | O=C(O)/C=C/c1ccc(O)c(O)c1 [caffeic acid]
2 | 55.6 | – | O=C(/C=C/c1ccc(O)c(O)c1)O[C@@H]1C[C@](O)(C(=O)O)C[C@@H](O)[C@H]1O [chlorogenic acid]
3 | – | 4.469 | O=C(/C=C/c1ccc(O)c(O)c1)O[C@H]1[C@H](O)C[C@](O)(C(=O)O)C[C@H]1O [cryptochlorogenic acid]
